Assay results from the NIST ThermoML archive (doi:10.1021/je5005752).

Test: xn = mol fraction of the nth substance listed
Conditions: 101 kPa, Liquid; for viscosity: Falling or rolling sphere viscometry; for mass density: Vibrating tube method

CCCC(=O)OCC [ethyl butanoate] + CCCO
Conditions | mass density [kg/m3] | viscosity [mPa·s]
288.15 K, x1 = 0.1001 | 819.96 | 1.784
288.15 K, x1 = 0.2 | 830.48 | 1.392
288.15 K, x1 = 0.2999 | 839.77 | 1.151
288.15 K, x1 = 0.3994 | 848.08 | 1.008
288.15 K, x1 = 0.4999 | 855.6 | 0.9046
288.15 K, x1 = 0.6002 | 862.45 | 0.8354
288.15 K, x1 = 0.6998 | 868.56 | 0.7874
288.15 K, x1 = 0.8001 | 874.16 | 0.7517
288.15 K, x1 = 0.9001 | 879.26 | 0.7286
288.15 K, x1 = 1 | 884.16 | 0.7224
293.15 K, x1 = 0.1001 | 815.72 | 1.599
293.15 K, x1 = 0.2 | 826.03 | 1.262
293.15 K, x1 = 0.2999 | 835.14 | 1.054
293.15 K, x1 = 0.3994 | 843.3 | 0.9293
293.15 K, x1 = 0.4999 | 850.69 | 0.8397
293.15 K, x1 = 0.6002 | 857.44 | 0.779
293.15 K, x1 = 0.6998 | 863.46 | 0.737
293.15 K, x1 = 0.8001 | 868.99 | 0.706
293.15 K, x1 = 0.9001 | 874.03 | 0.6861
293.15 K, x1 = 1 | 878.9 | 0.6808
298.15 K, x1 = 0.1001 | 811.45 | 1.438
298.15 K, x1 = 0.2 | 821.55 | 1.147
298.15 K, x1 = 0.2999 | 830.49 | 0.9686
298.15 K, x1 = 0.3994 | 838.5 | 0.8586
298.15 K, x1 = 0.4999 | 845.76 | 0.7808
298.15 K, x1 = 0.6002 | 852.4 | 0.7275
298.15 K, x1 = 0.6998 | 858.34 | 0.6906
298.15 K, x1 = 0.8001 | 863.8 | 0.6636
298.15 K, x1 = 0.9001 | 868.79 | 0.6465
298.15 K, x1 = 1 | 873.62 | 0.643
303.15 K, x1 = 0.1001 | 807.15 | 1.3
303.15 K, x1 = 0.2 | 817.04 | 1.048
303.15 K, x1 = 0.2999 | 825.81 | 0.8932
303.15 K, x1 = 0.3994 | 833.68 | 0.7965
303.15 K, x1 = 0.4999 | 840.81 | 0.727
303.15 K, x1 = 0.6002 | 847.35 | 0.68
303.15 K, x1 = 0.6998 | 853.2 | 0.6481
303.15 K, x1 = 0.8001 | 858.59 | 0.624
303.15 K, x1 = 0.9001 | 863.53 | 0.6098
303.15 K, x1 = 1 | 868.33 | 0.6072
308.15 K, x1 = 0.1001 | 802.83 | 1.179
308.15 K, x1 = 0.2 | 812.51 | 0.959
308.15 K, x1 = 0.2999 | 821.1 | 0.8239
308.15 K, x1 = 0.3994 | 828.82 | 0.7391
308.15 K, x1 = 0.4999 | 835.83 | 0.6786
308.15 K, x1 = 0.6002 | 842.27 | 0.638
308.15 K, x1 = 0.6998 | 848.03 | 0.6089
308.15 K, x1 = 0.8001 | 853.36 | 0.5882
308.15 K, x1 = 0.9001 | 858.26 | 0.5756
308.15 K, x1 = 1 | 863.02 | 0.5736
313.15 K, x1 = 0.1001 | 798.47 | 1.073
313.15 K, x1 = 0.2 | 807.94 | 0.8796
313.15 K, x1 = 0.2999 | 816.35 | 0.7599
313.15 K, x1 = 0.3994 | 823.93 | 0.6873
313.15 K, x1 = 0.4999 | 830.81 | 0.6338
313.15 K, x1 = 0.6002 | 837.16 | 0.598
313.15 K, x1 = 0.6998 | 842.84 | 0.5722
313.15 K, x1 = 0.8001 | 848.11 | 0.5543
313.15 K, x1 = 0.9001 | 852.96 | 0.544
313.15 K, x1 = 1 | 857.7 | 0.5424
318.15 K, x1 = 0.1001 | 794.06 | 0.9782
318.15 K, x1 = 0.2 | 803.33 | 0.8084
318.15 K, x1 = 0.2999 | 811.58 | 0.7044
318.15 K, x1 = 0.3994 | 819 | 0.6398
318.15 K, x1 = 0.4999 | 825.77 | 0.5926
318.15 K, x1 = 0.6002 | 832 | 0.5612
318.15 K, x1 = 0.6998 | 837.62 | 0.5398
318.15 K, x1 = 0.8001 | 842.82 | 0.5227
318.15 K, x1 = 0.9001 | 847.64 | 0.5138
318.15 K, x1 = 1 | 852.36 | 0.5132
323.15 K, x1 = 0.1001 | 789.62 | 0.9018
323.15 K, x1 = 0.2 | 798.67 | 0.7475
323.15 K, x1 = 0.2999 | 806.74 | 0.6572
323.15 K, x1 = 0.3994 | 814.03 | 0.601
323.15 K, x1 = 0.4999 | 820.68 | 0.5568
323.15 K, x1 = 0.6002 | 826.83 | 0.5301
323.15 K, x1 = 0.6998 | 832.37 | 0.5106
323.15 K, x1 = 0.8001 | 837.52 | 0.4955
323.15 K, x1 = 0.9001 | 842.3 | 0.488
323.15 K, x1 = 1 | 847 | 0.487
